Results on 22 molecules are retold here after ChEMBL document CHEMBL5625179, “2-Substituted quinazolines: Partial agonistic and antagonistic ligands of the constitutive androstane receptor (CAR)” (Eur J Med Chem, 2023).

What all share (format): cell-based
The target of series [1] is T1, Nuclear receptor subfamily 1 group I member 3 (Homo sapiens, UniProt Q14994).
T1 sequence (Q14994 whole entry): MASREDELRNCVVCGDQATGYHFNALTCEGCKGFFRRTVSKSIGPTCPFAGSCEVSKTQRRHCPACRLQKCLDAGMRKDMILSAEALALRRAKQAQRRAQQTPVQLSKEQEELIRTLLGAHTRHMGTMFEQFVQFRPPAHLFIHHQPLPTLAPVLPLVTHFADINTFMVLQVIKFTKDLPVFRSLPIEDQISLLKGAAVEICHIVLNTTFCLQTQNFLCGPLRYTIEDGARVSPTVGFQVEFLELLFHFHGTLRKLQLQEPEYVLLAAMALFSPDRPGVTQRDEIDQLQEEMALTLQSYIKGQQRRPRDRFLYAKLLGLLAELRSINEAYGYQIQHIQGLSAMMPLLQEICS
In words: Activation of human CAR3 expressed in human HepG2 cells at 30 uM incubated for 24 hrs by dual luciferase gene reporter assay relative to CITCO. Conditions: hepg2, 24 h; call rule not given here. In general terms: Reporter assays use an easily measured gene product as a stand-in for the process of interest.

Series [2] addresses T1, Nuclear receptor subfamily 1 group I member 3. Description: Activation of human CAR LBD expressed in human HepG2 cells at 30 uM incubated for 24 hrs by dual luciferase reporter assay relative to CITCO. Conditions: hepg2, 24 h.
Series [3] has the same target. In words: Antagonist activity at human CAR LBD (151 to 349 residues) expressed in HepG2 cells co-expressed with pGL5-luc luciferase assessed as reduction in CAR activation measured after 1 to 4 hrs by LanthaScreen TR-FRET assay. The note with it: time 1-4 hrs.
Series [4] shares this target. Description: Antagonist activity at human CAR LBD expressed in human HepG2 cells at 30 uM incubated for 24 hrs in presence of CITCO by dual luciferase reporter assay. The note with it: hepg2, 24 h.
Series [5] shares this target. Description: Partial agonist activity at human CAR LBD (151 to 349 residues) expressed in HepG2 cells coexpressed with pGL5-luc luciferase measured after 1 to 4 hrs by LanthaScreen TR-FRET assay. The note with it: for Activity: human, hepg2, time 1-4 hrs. On the technique in general: In TR-FRET formats the signal depends on donor and acceptor labels being close together.

For series [6] the target is unchanged. Description: Antagonist activity at human CAR LBD (151 to 349 residues) expressed in HepG2 cells co-expressed with pGL5-luc luciferase assessed as reduction in CAR activation measured after 1 to 4 hrs in presence of CITCO by LanthaScreen TR-FRET assay.
The target is the same in series [7]. In words: Antagonist activity at human CAR LBD expressed in human HepG2 cells incubated for 24 hrs in presence of CITCO by dual luciferase reporter assay.
A further series addresses T2, CAR3 (NR1I3) (Homo sapiens, UniProt Q14994).
T2 sequence (Q14994 whole entry): T1 sequence (Q14994 whole entry)
In words: Antagonist activity at human CAR3 expressed in human HepG2 cells at 30 uM incubated for 24 hrs by dual luciferase gene reporter assay relative to CITCO. More on the design: scale not given: the % may be the effect or the level left. The note with it: HepG2 cells expressing human CAR3, read-out: Activity.

Series [8] has as its target T3, CAR (NR1I3) LBD (Homo sapiens, UniProt Q14994).
T3 sequence (Q14994 whole entry): T1 sequence (Q14994 whole entry)
Description: Antagonist activity at human CAR LBD expressed in human HepG2 cells at 30 uM incubated for 24 hrs by dual luciferase reporter assay relative to CITCO. The note with it: HepG2 cells expressing human CAR LBD, read-out: Activity. More on the design: scale not given: the % may be the effect or the level left.

The target in series [9] is T3, CAR (NR1I3) LBD. In words: Partial agonist activity at human CAR LBD expressed in human HepG2 cells at 30 uM incubated for 24 hrs by dual luciferase reporter assay relative to CITCO. The note with it: HepG2 cells expressing human CAR LBD, read-out: Activity.
Series [10] addresses T1, Nuclear receptor subfamily 1 group I member 3. In words: Partial agonist activity human CAR3 expressed in human HepG2 cells at 30 uM incubated for 24 hrs by dual luciferase gene reporter assay relative to CITCO. The note with it: hepg2, 24 h.

Regarding `O=c1[nH]c(-c2ccc(C(F)(F)F)cc2)nc2ccccc12`, the Activity is on record as 12% in series [1] and -8% in [2].

Take `COc1nc(-c2cccc(F)c2)nc2ccccc12`: the results for the Activity in series [1] and in series [2] were 5% and -5%, respectively.

With `Cn1c(-c2ccc(F)cc2)nc2ccccc2c1=O`, the Activity in [1] is given as 13%; in [2], -5%.

`Cc1cccc(-c2nc3ccccc3c(=O)n2C)c1`: the figures for the Activity in [1] and in [2] were 13% and -3%, respectively.

As for `O=c1[nH]c(-c2ccc(Br)cc2)nc2ccccc12`, the figures for the Activity in series [1] and in series [2] were 12% and 3%, respectively.

Take `COc1ccc(-c2nc3ccccc3c(=O)[nH]2)cc1`: the values for the Activity in series [1] and in series [2] were 33% and 3%, respectively.

As for `COc1nc(-c2ccc(OC(F)(F)F)cc2)nc2ccccc12`, the Activity in series [1] is 5%; in [2], -3%.

As for `Cc1cccc(-c2nc(O)c3ccccc3n2)c1`, the Activity in series [1] is recorded as 34%; in series [2], 5%.

For the molecule `COc1ccc(-c2nc3ccccc3c(=S)[nH]2)cc1OC`, the Activity in series [1] is 13%; in [2], -4%.

As to `O=c1[nH]c(-c2ccc3c(c2)OCO3)nc2ccccc12`, the Activity in series [1] is reported as 3%; in series [2] it was -2%.

Take `Oc1nc(-c2ccc(F)cc2)nc2ccccc12`: the Activity in [1] is listed as 10%; in [2] it was -6%.

Regarding `Cn1c(-c2ccc(OC(F)(F)F)cc2)nc2ccccc2c1=O`, the Activity entry in series [3] was “Not Active”; in series [1], 22%; in series [2] it was -8%; in [4], “Active”; in series [5], “Not Active”.

Consider `COc1ccc(-c2nc3ccccc3c(=O)n2C)cc1OC`, for which the Activity in [1] was 15%; in series [2], -6%.

In the case of `COc1nc(-c2cccc([N+](=O)[O-])c2)nc2ccccc12`, the values for the Activity in series [1] and in series [2] were 15% and -3%, respectively.

As for `CC(C)(C)c1ccc(-c2nc3ccccc3c(=O)[nH]2)cc1`, the Activity in series [1] is listed as 7%; in [2] it was -5%.

As to `Sc1nc(-c2ccc(Br)cc2)nc2ccccc12`, the IC50 (usually the concentration needed to halve the response being measured) is 95.7 µM in series [6] and 30 µM in [7]. The Activity entry in series [3] is given as “Not Active”; in series [4], “Active”; in series [5] it was “Not Active”. Further, the activity at 24 h, 30 µM on CAR3 (NR1I3) turned out to be 44%; on CAR (NR1I3) LBD [8] it was 1%.

As for `CSc1nc(-c2cccc(C)c2)nc2ccccc12`, the activity at 24 h, 30 µM at CAR (NR1I3) LBD [9] came to 36.3%. Besides, the Activity entry in series [4] is “Active”; in series [10], 44%. The EC50 (as a rule, the concentration needed to bring the measured effect to its halfway point) in [5] was found to be 10.6 µM.

`COc1ccc(-c2nc(O)c3ccccc3n2)cc1OC`: the figures for the Activity in [1] and in series [2] were 28% and 3%, respectively.

In the case of `CC(C)(C)c1ccc(-c2nc3ccccc3c(=S)[nH]2)cc1`, the Activity was 9% in [1] and 1% in series [2].

Consider `O=[N+]([O-])c1cccc(-c2nc3ccccc3c(=S)[nH]2)c1`, for which the Activity in [1] was determined as 11%; in [2], 1%.

For the molecule `S=c1[nH]c(-c2cccc(Cl)c2)nc2ccccc12`, the values for the Activity in series [1] and in [2] were 15% and 6%, respectively.

Regarding `O=c1[nH]c(-c2ccc(Cl)c(Cl)c2)nc2ccccc12`, the Activity in series [1] was 9%; in [2], -6%.
